Assay results taken from US20080188445A1, “TETRACYCLINE COMPOSITIONS FOR TOPICAL ADMINISTRATION” (WARNER CHILCOTT COMPANY INC., priority 2007, published 2008).
Counter-ions that a name gives are not always drawn.

Assay: Permeation through a silicone membrane, pH effect (side-by-side permeation apparatus)
Assay type: in vitro ADME
Details: 32° C.
Description: A further study investigated the permeation of minocycline from a liquid formulation comprising 0.47% (w/w) minocycline HCl dissolved in water through a silicone membrane as function of the pH. The diffusion of tetracycline from commercially available Topicycline® (0.2% w/w tetracycline HCl) across a silicone membrane was also compared under equivalent conditions. The permeation apparatus used (FIG. 1) was as follows. The apparatus consisted of two water-jacketed compartments 1 and 2, separated by a standard silicone membrane 3 (SMEM001 002, Esco Rubber, Barloworld Scientific Ltd, UK), which were clamped together. Each water-jacketed compartment 1 and 2 had respective water inlets 4 and water outlets 5 on the respective outer compartments 6, said outer compartments containing water. Inner compartment 7 for containing sample and inner compartment 8 for containing dissolution medium are also shown. The liquid formulation (or the Topicycline®) was immediately introduced into the inner compartment 7 via port 10. A pre-heated 0.9% saline solution (32° C.) was introduced via the sampling port 9 in the inner compartment 8.

With `CN(C)c1ccc(O)c2c1C[C@H]1C[C@H]3[C@H](N(C)C)C(O)=C(C(N)=O)C(=O)[C@@]3(O)C(O)=C1C2=O` [Minocycline HCl] the “Amount of Tetracycline or Minocycline (μg) detected after 6 hours” value (“Amount of Tetracycline or Minocycline” below) (pH 5.0, receiver 0.9% saline) was 0.17 µg, the “Amount of Tetracycline or Minocycline” value (pH 6.2, receiver 0.9% saline) was 0.55 µg and the “Amount of Tetracycline or Minocycline” value (pH 7.0, receiver 0.9% saline) was 0.31 µg.
